This note sets out measurements from patent US9394311B2, “Triazolo compounds as PDE10 inhibitors” (Hoffmann-La Roche Inc., priority 2012, dated 2016).

Sequence of human PDE10A (Q9Y233 other isoform, or with tags, fused parts or gaps): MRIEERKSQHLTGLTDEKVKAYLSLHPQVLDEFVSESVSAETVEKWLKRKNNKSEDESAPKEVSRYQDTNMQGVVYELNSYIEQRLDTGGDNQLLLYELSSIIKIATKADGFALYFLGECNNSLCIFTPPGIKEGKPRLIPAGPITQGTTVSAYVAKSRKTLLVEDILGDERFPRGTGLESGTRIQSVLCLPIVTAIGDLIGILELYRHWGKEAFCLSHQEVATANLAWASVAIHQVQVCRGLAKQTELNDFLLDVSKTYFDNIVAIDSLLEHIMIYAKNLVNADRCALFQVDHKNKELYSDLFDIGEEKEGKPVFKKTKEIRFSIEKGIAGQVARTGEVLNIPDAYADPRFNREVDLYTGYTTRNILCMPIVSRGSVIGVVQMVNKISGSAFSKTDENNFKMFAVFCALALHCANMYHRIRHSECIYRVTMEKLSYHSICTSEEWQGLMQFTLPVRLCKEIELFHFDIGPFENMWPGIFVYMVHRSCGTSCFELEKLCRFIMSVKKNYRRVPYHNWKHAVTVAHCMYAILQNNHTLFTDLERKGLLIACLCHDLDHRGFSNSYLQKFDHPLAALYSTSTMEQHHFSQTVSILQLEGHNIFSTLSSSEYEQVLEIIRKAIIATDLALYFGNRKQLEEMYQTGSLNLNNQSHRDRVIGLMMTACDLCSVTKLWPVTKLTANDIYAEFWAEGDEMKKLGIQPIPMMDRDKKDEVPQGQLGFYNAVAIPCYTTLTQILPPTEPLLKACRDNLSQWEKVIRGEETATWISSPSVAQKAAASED

This experiment concerns the target human PDE10A (Homo sapiens (Human), UniProt Q9Y233). In words: human PDE10A full length Scintillation Proximity Assay (SPA). The experiment is classed as biochemical. To be noted: PDE10A full length enzyme, 50 nM cGMP / [3H]-cGMP substrate, 20 minutes at room temperature. In a few lines:
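Full-length human PDE10A with 50 nM cGMP plus 50 nM [3H]-cGMP in 20 mM HEPES pH 7.5, 10 mM MgCl2, 0.05 mg/ml BSA; 20 min at room temperature. Stopped with yttrium silicate SPA beads in zinc sulphate, scintillation counted; IC50 from concentration range.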
(In general: In a scintillation proximity assay essentially only radioactivity close to the scintillant gives light.)
Broadly, the IC50 is the midpoint of a concentration-inhibition curve. A low value points to greater potency. `Clc1ccc2ncc(CCc3n[nH]c(N4CCCC4)n3)nc2c1` [Example 134, 7-chloro-2-(2-(5-(pyrrolidin-1-yl)-1H-1,2,4-triazol-3-yl)ethyl)quinoxaline] showed an IC50 of 33 nM. In other words, the double-digit nanomolar range.

`Cn1nc(N2CCCC2)nc1CCc1nc2cc(C#N)ccn2n1` [Example 67, 2-(2-(1-Methyl-3-(pyrrolidin-1-yl)-1H-1,2,4-triazol-5-yl)ethyl)-[1,2,4]triazolo[1,5-a]pyridine-7-carbonitrile] displayed an IC50 of 317 nM.

Compound `CCn1nc(N2CCCC2)nc1/C=C/c1nc2nc(C)cc(C)n2n1` [Example 3, 2-[2-(2-Ethyl-5-pyrrolidin-1-yl-2H-[1,2,4]triazol-3-yl)-vinyl]-5,8-dimethyl-[1,2,4]triazolo[1,5-a]pyrimidine] registered an IC50 of 205 nM.

Compound `COC[C@H]1CCCN1c1nc(CCc2nc3c(C)ncc(C)n3n2)n(C)n1` [Example 124, 2-{2-[5-((R)-2-Methoxymethyl-pyrrolidin-1-yl)-2-methyl-2H-[1,2,4]triazol-3-yl]-ethyl}-5,8-dimethyl-[1,2,4]triazolo[1,5-a]pyrazine] came in with an IC50 of 14.1 nM.

As to `COc1ccc(Cn2nc(N3CCCC3)nc2CCc2nc3c(Cl)cc(Cl)c(C)n3n2)cc1` [Example 61], the IC50 stood at 0.72 nM.

Turning to `Cn1nc(N2CCCC2)nc1CCc1nc2ccc(Cl)cn2n1` [Example 26, 6-Chloro-2-(2-(1-methyl-3-(pyrrolidin-1-yl)-1H-1,2,4-triazol-5-yl)ethyl)-[1,2,4]triazolo[1,5-a]pyridine], inhibition was half-maximal at 62.7 nM (IC50). Compared with the last compound, the IC50 is about 87-fold higher.

As for `Cc1ncc(C)n2nc(CCc3nc(N4CCC(F)(F)C4)nn3C)nc12` [Example 93, 2-{2-[5-(3,3-Difluoro-pyrrolidin-1-yl)-2-methyl-2H-[1,2,4]triazol-3-yl]-ethyl}-5,8-dimethyl-[1,2,4]triazolo[1,5-a]pyrazine], the IC50 came out at 166 nM.

`Cc1c(Cl)cc(OC(F)F)c2nc(CCc3nc(N4CCCC4)n(C)n3)nn12` [Example 106, 6-Chloro-8-difluoromethoxy-5-methyl-2-[2-(1-methyl-5-pyrrolidin-1-yl-1H-[1,2,4]triazol-3-yl)-ethyl]-[1,2,4]triazolo[1,5-c]pyridine] yielded an IC50 of 0.55 nM.

The compound `COC1CCN(c2nc(CCc3nc4c(C)ncc(C)n4n3)n(C)n2)C1` (stereo not drawn) [Example 43, 2-{2-[5-(3-Methoxy-pyrrolidin-1-yl)-2-methyl-2H-[1,2,4]triazol-3-yl]-ethyl}-5,8-dimethyl-[1,2,4]triazolo[1,5-a]pyrazine] returned an IC50 of 84.3 nM.

In turn, `Cn1nc(N2CCCC2)nc1CCc1nc2ccc3ccccc3n2n1` [Example 56, 2-(2-(1-Methyl-3-(pyrrolidin-1-yl)-1H-1,2,4-triazol-5-yl)ethyl)-[1,2,4]triazolo[1,5-a]quinoline] yielded an IC50 of 29.2 nM.

In turn, `Cc1cc(C)n2nc(CCc3nc(N4CCCC4)nn3C)nc2n1` [Example 24, 5,7-dimethyl-2-(2-(1-methyl-3-(pyrrolidin-1-yl)-1H-1,2,4-triazol-5-yl)ethyl)-[1,2,4]triazolo[1,5-a]pyrimidine] gave an IC50 of 23.6 nM.

The compound `CCc1cnc(C)n2nc(CCc3nc(N4CCCC4)nn3C)nc12` [Example 75, 8-Ethyl-5-methyl-2-(2-(1-methyl-3-(pyrrolidin-1-yl)-1H-1,2,4-triazol-5-yl)ethyl)-[1,2,4]triazolo[1,5-c]pyrimidine] had an IC50 of 3.78 nM.

Compound `Cc1ncc(C)n2nc(CCc3nc(N4CC(F)C4)nn3C)nc12` [Example 39, 2-{2-[5-(3-Fluoro-azetidin-1-yl)-2-methyl-2H-[1,2,4]triazol-3-yl]-ethyl}-5,8-dimethyl-[1,2,4]triazolo[1,5-a]pyrazine] came in with an IC50 of 55.6 nM.

`Cc1cc(C)n2nc(CCc3nc(N4CCC4)nn3C)nc2n1` [Example 21, 2-[2-(5-Azetidin-1-yl-2-methyl-2H-[1,2,4]triazol-3-yl)-ethyl]-5,7-dimethyl-[1,2,4]triazolo[1,5-a]pyrimidine] gave an IC50 of 91.5 nM.

Consider `COc1cc(Cl)c(C)n2nc(CCc3nc(N4CCCC4)nn3C)nc12` [Example 76, 6-Chloro-8-methoxy-5-methyl-2-[2-(2-methyl-5-pyrrolidin-1-yl-2H-[1,2,4]triazol-3-yl)-ethyl]-[1,2,4]triazolo[1,5-a]pyridine], for which the IC50 was determined as 0.44 nM. This IC50 lies about 210-fold lower than the previous one.

`Cc1ncc(C)n2nc(/C=C/c3nc(N(C)CC4CC4)nn3C)nc12` [Example 97, Cyclopropylmethyl-{5-[(E)-2-(5,8-dimethyl-[1,2,4]triazolo[1,5-a]pyrazin-2-yl)-vinyl]-1-methyl-1H-[1,2,4]triazol-3-yl}-methyl-amine] displayed an IC50 of 79.3 nM.

As to `Cc1ncc(C)n2nc(/C=C/c3nc(N4CCCC4)nn3C)nc12` [Example 13, 5,8-Dimethyl-2-[2-(2-methyl-5-pyrrolidin-1-yl-2H-[1,2,4]triazol-3-yl)-vinyl]-[1,2,4]triazolo[1,5-a]pyrazine], half-maximal inhibition (IC50) required 27.7 nM.

The compound `Cc1ncc(C)n2nc(CCc3nc(N4CCCC4)nn3-c3ccccc3)nc12` [Example 109, 5,8-Dimethyl-2-[2-(2-phenyl-5-pyrrolidin-1-yl-2H-[1,2,4]triazol-3-yl)-ethyl]-[1,2,4]triazolo[1,5-a]pyrazine] had an IC50 of 0.29 nM.

As for `Cc1ncc(C)n2nc(/C=C/c3nc(N4CCCCCC4)nn3C)nc12` [Example 102, 2-[(E)-2-(5-Azepan-1-yl-2-methyl-2H-[1,2,4]triazol-3-yl)-vinyl]-5,8-dimethyl-[1,2,4]triazolo[1,5-a]pyrazine], the IC50 was 179 nM.

Turning to `Cc1cc(Cl)c(C)n2nc(/C=C/c3nc(N4CCCC4)n(C)n3)nc12` [Example 35, 6-Chloro-5,8-dimethyl-2-(2-(1-methyl-5-(pyrrolidin-1-yl)-1H-1,2,4-triazol-3-yl)vinyl)-[1,2,4]triazolo[1,5-a]pyridine], the IC50 came out at 0.15 nM.

Consider `Cc1ncc(C)n2nc(CCc3nc(N4CC(F)(F)C4)nn3C)nc12` [Example 90, 2-{2-[5-(3,3-Difluoro-azetidin-1-yl)-2-methyl-2H-[1,2,4]triazol-3-yl]-ethyl}-5,8-dimethyl-[1,2,4]triazolo[1,5-a]pyrazine], for which the IC50 was 475 nM.

In turn, `Cc1cnc(C)n2nc(CCc3nc(N4CCC[C@H]4C)nn3C)nc12` [Example 113, 5,8-Dimethyl-2-{2-[2-methyl-5-((R)-2-methyl-pyrrolidin-1-yl)-2H-[1,2,4]triazol-3-yl]-ethyl}-[1,2,4]triazolo[1,5-c]pyrimidine] came in with an IC50 of 131 nM.

As for `Cc1c(Cl)cc(S(C)(=O)=O)c2nc(CCc3nc(N4CCCC4)nn3C)nn12` [Example 73, 6-Chloro-8-methanesulfonyl-5-methyl-2-[2-(2-methyl-5-pyrrolidin-1-yl-2H-[1,2,4]triazol-3-yl)-ethyl]-[1,2,4]triazolo[1,5-a]pyridine], the midpoint of inhibition, the IC50, lay at 86.9 nM.

For the compound `Cc1cc(C(F)(F)F)c2nc(CCc3nc(N4CCCC4)nn3C)nn2c1C` [Example 84, 5,6-Dimethyl-2-(2-(1-methyl-3-(pyrrolidin-1-yl)-1H-1,2,4-triazol-5-yl)ethyl)-8-(trifluoromethyl)-[1,2,4]triazolo[1,5-a]pyridine], 1.45 nM corresponded to half-maximal inhibition (IC50).

Regarding `Cc1cc(Cl)c(C)n2nc([C@H]3C[C@@H]3c3nc(N4CCCC4)nn3C)nc12` [Example 46, 6-Chloro-5,8-dimethyl-2-[(1S,2S)-2-(2-methyl-5-pyrrolidin-1-yl-2H-[1,2,4]triazol-3-yl)-cyclopropyl]-[1,2,4]triazolo[1,5-a]pyridine], the IC50 was 4.98 nM.

In turn, `Cc1c(Cl)cc(C(F)(F)F)c2nc(CCc3nc(N4CCC(F)(F)C4)nn3C)nn12` [Example 88, 6-Chloro-2-{2-[5-(3,3-difluoro-pyrrolidin-1-yl)-2-methyl-2H-[1,2,4]triazol-3-yl]-ethyl}-5-methyl-8-trifluoromethyl-[1,2,4]triazolo[1,5-c]pyridine] returned an IC50 of 9.78 nM.

On to `Cc1c(Br)cc(C(F)(F)F)c2nc(CCc3nc(N4CCCC4)nn3C)nn12` [Example 82, 6-Bromo-5-methyl-2-[2-(2-methyl-5-pyrrolidin-1-yl-2H-[1,2,4]triazol-3-yl)-ethyl]-8-trifluoromethyl-[1,2,4]triazolo[1,5-c]pyridine], for which the concentration for half-maximal inhibition (IC50) was 0.48 nM. Against the preceding compound, the IC50 is about 20-fold lower.

For `Cc1ncc(C)n2nc(CCc3nc(N4CC[C@@H](C)C4)nn3C)nc12` [Example 116, 5,8-Dimethyl-2-{2-[2-methyl-5-((R)-3-methyl-pyrrolidin-1-yl)-2H-[1,2,4]triazol-3-yl]-ethyl}-[1,2,4]triazolo[1,5-a]pyrazine], inhibition was half-maximal at 8.94 nM (IC50). This IC50 lies about 19-fold higher than the previous one.

Regarding `Cc1c(Cl)cc(C(F)(F)F)c2nc(CCc3nc(N4CCCC4)n(C4CC4)n3)nn12` [Example 131, 6-Chloro-2-(2-(1-cyclopropyl-5-(pyrrolidin-1-yl)-1H-1,2,4-triazol-3-yl)ethyl)-5-methyl-8-(trifluoromethyl)-[1,2,4]triazolo[1,5-a]pyridine], the IC50 was 1.58 nM.

For `Cc1c(C#N)cc(C(F)(F)F)c2nc(CCc3nc(N4CCCC4)nn3C)nn12` [Example 83, 5-Methyl-2-(2-(1-methyl-3-(pyrrolidin-1-yl)-1H-1,2,4-triazol-5-yl)ethyl)-8-(trifluoromethyl)-[1,2,4]triazolo[1,5-a]pyridine-6-carbonitrile], the IC50 came out at 6.84 nM. Compared with the last compound, the IC50 is about 4.3-fold higher.

Compound `Cc1c(Br)cc(Cl)c2nc(CCc3nc(N4CCCC4)nn3C)nn12` [Example 72, 6-Bromo-8-chloro-5-methyl-2-(2-(1-methyl-3-(pyrrolidin-1-yl)-1H-1,2,4-triazol-5-yl)ethyl)-[1,2,4]triazolo[1,5-a]pyridine] gave an IC50 of 1.22 nM.

`Cc1c(Cl)cc(C(F)(F)F)c2nc(CCc3nc(N4CCCC4)nn3C3CC3)nn12` [Example 132, 6-Chloro-2-(2-(1-cyclopropyl-3-(pyrrolidin-1-yl)-1H-1,2,4-triazol-5-yl)ethyl)-5-methyl-8-(trifluoromethyl)-[1,2,4]triazolo[1,5-a]pyridine] came in with an IC50 of 0.72 nM. Against the preceding compound, the IC50 is about 1.7-fold lower.

Compound `Cn1nc(N2CCCC2)nc1CCc1nc2cc(C(F)(F)F)c(F)c(N)n2n1` [Example 63, 6-Fluoro-2-(2-(1-methyl-3-(pyrrolidin-1-yl)-1H-1,2,4-triazol-5-yl)ethyl)-7-(trifluoromethyl)-[1,2,4]triazolo[1,5-a]pyridin-5-amine] showed an IC50 of 32.4 nM.
